{"source": "patent US20060024699A1", "about": "“Method for evaluating a substance capable of effecting on endoplasmic reticulum stress-and/or amyloid beta-induced apoptosis” (priority 2004, published 2006)", "format_in_all_cases": "cell-based, human", "key": {"[1]": {"test_system": "pro-caspase-4", "assay": "Cleavage of pro-caspase-4 in SK-N-SH cells treated with apoptosis inducers (Western blotting)", "details": "tunicamycin 1 μg/ml, thapsigargin 0.5 μM, etoposide 100 μM for 16 or 24 hours, staurosporine 0.1 μM for 8 hours", "method": "SK-N-SH cells were treated with various kinds of apoptosis inducers such as tunicamycin (manufactured by SIGMA), thapsigargin (manufactured by SIGMA), etoposide (manufactured by SIGMA), staurosporine (manufactured by SIGMA), UV and the like, to evaluate change in caspase-4. Specifically, SK-N-SH cells were treated either with exposure to an endoplasmic reticulum stress inducer, tunicamycin (1 μg/ml) or thapsigargin (0.5 μM), exposure to a non-endoplasmic reticulum stress inducer, etoposide (100 μM) or staurosporine (0.1 μM), or irradiated with 150 J/m2 UV, in α-MEM (manufactured by Invitrogen) containing 10% by weight of fetal bovine serum, at 37° C. under 5% by volume of CO2. Here, the exposures to tunicamycin, thapsigargin and etoposide were 16 or 24 hours, exposure to staurosporine was 8 hours, and UV irradiation was 8 hours.\n(§1) Thereafter, the cells obtained were washed with phosphate buffered saline, and then harvested. The resulting cells were lysed in TNE buffer (composition: 10 mM Tris-HCl, pH 7.8, 1 mM EDTA, 150 mM NaCl, 1 mM phenylmethylsulphonyl fluoride) containing 0.5% by weight of NP-40 (trade name: Nonidet P-40), to give a cell extract. Equal amount of a cell extract (corresponding to 15 μg of protein) was subjected to 12% by weight SDS-PAGE. After the SDS-PAGE, proteins on the gel were transferred to a PVDF membrane (manufactured by Millipore). The membrane was blocked with 5% by weight of bovine serum albumin (BSA). The resulting membrane was incubated with a primary antibody (anti-caspase-4 antibody, anti-caspase-3 antibody, anti-caspase-7 antibody or anti-β-actin antibody), and thereafter incubated with a horseradish peroxidase (HRP)-conjugated secondary antibody. Thereafter, caspase-4, caspase-3, caspase-7 or β-actin was detected with trade name: ECL detection system (manufactured by Amersham-Pharmacia)."}, "[2]": {"test_system": "SK-N-SH cells", "assay": "Thapsigargin-induced cell death assessed by morphological changes in SK-N-SH cells", "details": "untransfected SK-N-SH cells; 0.5 μM thapsigargin for 40 hours", "method": "In the same manner as described above, cellular morphological changes of SK-N-SH cells treated with various apoptosis inducers were evaluated by phase contrast microscopy. SK-N-SH cells treated in the same manner were stained with 10 μM Hoechst 33342. Nuclear morphological changes of stained cells were evaluated by fluorescence microscopy. Cell death was detected by using as an index cellular morphological changes and nuclear morphological changes. At least 500 cells were counted. The data was expressed as the mean ±SEM from three independent experiments and P values were calculated by Student's t-test.\nSK-N-SH cell was transfected at 50% of confluence with 1.0 μg of the siRNA in 24-well plastic plates (manufactured by Nunc) containing αMEM (manufactured by Invitrogen) containing 10% by weight of fetal bovine serum, at 37° C. under 5% by volume of CO2, using trade name: Oligofectamine (manufactured by Invitrogen) according to the manufacturer's protocol. Transfected SK-N-SH cells were incubated at 37° C. for 60 hours without changing the medium.\nIn addition, SK-N-SH cells after the culturing were incubated in αMEM (manufactured by Invitrogen) containing 10% by weight of fetal bovine serum at 37° C. under 5% by volume of CO2, with or without 0.5 μM thapsigargin for 40 hours. […] Caspase-4 or β-actin was then detected with an ECL detection system (manufactured by Amersham-Pharmacia). […]"}, "[3]": {"test_system": "caspase-4", "assay": "Cleavage of caspase-4 in SK-N-SH cells treated with amyloid-β peptides (Western blotting)", "details": "25 μM Aβ25-35, 5 μM Aβ1-40, 25 μM Aβ35-25, 5 M Aβ40-1", "method": "as §1, with “Amersham-Pharmacia). […]” for “Amersham-Pharmacia).”\nSK-N-SH cells were incubated in α-MEM (manufactured by Invitrogen) containing 10% by weight of fetal bovine serum, at 37° C. under 5% by volume of CO2, with 25 μM Aβ25-35, 5 μM Aβ1-40, 25 μM Aβ35-25, or 5 M Aβ40-1. Caspase-4, caspase-7 or β-actin in the cell extract was then detected in the same manner as described above."}, "[4]": {"test_system": "HeLa cell", "assay": "Nuclear morphological changes (Hoechst33342) after tunicamycin in vector-transfected HeLa cells", "details": "tunicamycin 1 μg/ml for 30 hours", "method": "(§2) SK-N-SH cells were stably transfected with pCAGGS-hBcl-2 (Iwahashi, H. et al., Nature, 390, 413-417 (1997), all teachings of which are incorporated herein by reference) by a conventional method. The resulting cells were then cultured in αMEM (manufactured by Invitrogen) containing 10% by weight of fetal bovine serum, at 37° C. under 5% by volume of CO2 to overexpress Bcl-2. Similarly, HeLa cells were stably transfected with pCAGGS-hBcl-2. The resulting cells were then cultured in DMEM (manufactured by Invitrogen) containing 10% by weight of fetal bovine serum, at 37° C. under 5% by volume of CO2 for 48 hours to overexpress Bcl-2. Here, SK-N-SH cells and HeLa cells were stably transfected with trade name: pCAGGS (Hitoshi Niwa et al., Gene, 108, 193-200 (1991), all teachings of which are incorporated herein by reference) as controls, in the same manner as described above, respectively.\n(§3) In addition, each of the transfectants was treated with tunicamycin (1 μg/ml) for 30 hours, stained with Hoechst33342, and observed by fluorescence microscopy."}, "[5]": {"test_system": "SK-N-SH cell", "assay": "Nuclear morphological changes (Hoechst33342) after tunicamycin in vector-transfected SK-N-SH cells", "details": "tunicamycin 1 μg/ml for 30 hours", "method": "as §2, §3"}}, "data": [{"compound": "COc1cc([C@@H]2c3cc4c(cc3[C@@H](O[C@@H]3O[C@@H]5CO[C@@H](C)O[C@H]5[C@H](O)[C@H]3O)[C@H]3COC(=O)[C@H]23)OCO4)cc(OC)c1O", "note": "[etoposide]", "values": [{"measurement": "cleavage of pro-caspase-4", "setting": "[1]", "value": "not cleaved"}]}, {"compound": "CN[C@@H]1C[C@H]2O[C@@](C)([C@@H]1OC)n1c3ccccc3c3c4c(c5c6ccccc6n2c5c31)C(=O)NC4", "note": "[staurosporine]", "values": [{"measurement": "cleavage of pro-caspase-4", "setting": "[1]", "value": "not cleaved"}]}, {"compound": "C/C=C(/C)C(=O)O[C@H]1C(C)=C2[C@H]([C@@H]1OC(=O)CCCCCCC)[C@@](C)(OC(C)=O)C[C@H](OC(=O)CCC)[C@@]1(O)[C@H]2OC(=O)[C@@]1(C)O", "note": "[thapsigargin]", "values": [{"measurement": "cleavage of pro-caspase-4", "setting": "[1]", "value": "induced the cleavage of pro-caspase-4"}, {"measurement": "cells resulting in death", "setting": "[2]", "value": "about 60%"}]}, {"compound": "Aβ1-40: amyloid-β peptide 1-40", "values": [{"measurement": "cleavage of caspase-4", "setting": "[3]", "value": "cleavage of caspase-4 was observed"}]}, {"compound": "Aβ25-35: partial peptide of amyloid-β (GSNKGAIIGLM; Amyloid-beta protein 40; UniProt P05067 696-706, looked up, fragment)", "values": [{"measurement": "cleavage of caspase-4", "setting": "[3]", "value": "cleavage of caspase-4 was observed"}]}, {"compound": "tunicamycin", "values": [{"measurement": "cleavage of pro-caspase-4", "setting": "[1]", "value": "induced the cleavage of pro-caspase-4"}, {"measurement": "apoptotic nuclear morphological changes", "setting": "[4]", "value": "apoptotic nuclear morphological changes were induced"}, {"measurement": "apoptotic nuclear morphological changes", "setting": "[5]", "value": "apoptotic nuclear morphological changes were induced"}]}]}
